PubChem BioAssay (NCI)
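The compound was tested at five concentrations on cells cultured in 96-well plates, with a 48-hour exposure period. TGI is the concentration that stops growth completely.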

Legend:
Test in all cases: inhibition of tumour cell growth, NCI panel, 48 h
HCT-116 colon = test system: HCT-116 colon
SR leukemia = test system: SR leukemia
OVCAR-4 ovarian = test system: OVCAR-4 ovarian
RPMI-8226 leukemia = test system: RPMI-8226 leukemia
UACC-257 melanoma = test system: UACC-257 melanoma
OVCAR-5 ovarian = test system: OVCAR-5 ovarian
RXF 393 renal = test system: RXF 393 renal
COLO 205 colon = test system: COLO 205 colon
SNB-75 CNS = test system: SNB-75 CNS
SK-OV-3 ovarian = test system: SK-OV-3 ovarian
XF 498 CNS = test system: XF 498 CNS
M14 melanoma = test system: M14 melanoma
786-0 renal = test system: 786-0 renal
UACC-62 melanoma = test system: UACC-62 melanoma
HOP-62 NSCLC = test system: HOP-62 NSCLC
M19-MEL melanoma = test system: M19-MEL melanoma
LOX IMVI melanoma = test system: LOX IMVI melanoma
DMS 273 small cell lung = test system: DMS 273 small cell lung
LXFL 529 NSCLC = test system: LXFL 529 NSCLC
NCI-H460 lung = test system: NCI-H460 lung
K-562 leukemia = test system: K-562 leukemia
RXF-631 renal = test system: RXF-631 renal
HCT-15 colon = test system: HCT-15 colon
SW-620 colon = test system: SW-620 colon
HCC-2998 colon = test system: HCC-2998 colon
HL-60(TB) leukemia = test system: HL-60(TB) leukemia
ACHN renal = test system: ACHN renal
U251 CNS = test system: U251 CNS
DLD-1 colon = test system: DLD-1 colon
NCI-H23 lung = test system: NCI-H23 lung
SK-MEL-28 melanoma = test system: SK-MEL-28 melanoma
SK-MEL-5 melanoma = test system: SK-MEL-5 melanoma
MALME-3M melanoma = test system: MALME-3M melanoma
UO-31 renal = test system: UO-31 renal
HOP-18 NSCLC = test system: HOP-18 NSCLC
CCRF-CEM leukemia = test system: CCRF-CEM leukemia
SN12C renal = test system: SN12C renal
OVCAR-3 ovarian = test system: OVCAR-3 ovarian
NCI-H522 lung = test system: NCI-H522 lung
HOP-92 NSCLC = test system: HOP-92 NSCLC
HT29 colon = test system: HT29 colon
TK-10 renal = test system: TK-10 renal
CAKI-1 renal = test system: CAKI-1 renal
SK-MEL-2 melanoma = test system: SK-MEL-2 melanoma
SF-268 CNS = test system: SF-268 CNS
KM12 colon = test system: KM12 colon
SF-295 CNS = test system: SF-295 CNS
SNB-19 CNS = test system: SNB-19 CNS
MOLT-4 leukemia = test system: MOLT-4 leukemia
DMS 114 small cell lung = test system: DMS 114 small cell lung
KM20L2 colon = test system: KM20L2 colon
IGROV1 ovarian = test system: IGROV1 ovarian
SNB-78 CNS = test system: SNB-78 CNS
SF-539 CNS = test system: SF-539 CNS
A549 NSCLC = test system: A549 NSCLC
EKVX NSCLC = test system: EKVX NSCLC
OVCAR-8 ovarian = test system: OVCAR-8 ovarian
NCI-H226 lung = test system: NCI-H226 lung
A498 renal = test system: A498 renal

O=c1oc2c3ccc4ccccc4c3n(CCN3CCCCC3)c2c2ccccc12
TGI (HCT-116 colon): > 100 µM | TGI (SR leukemia): > 100 µM | TGI (OVCAR-4 ovarian): > 62 µM | TGI (RPMI-8226 leukemia): > 100 µM | TGI (UACC-257 melanoma): > 100 µM | TGI (OVCAR-5 ovarian): > 100 µM | TGI (RXF 393 renal): 29.3 µM | TGI (COLO 205 colon): > 100 µM | TGI (SNB-75 CNS): 19.6 µM | TGI (SK-OV-3 ovarian): > 78.5 µM | TGI (XF 498 CNS): 42.9 µM | TGI (M14 melanoma): > 100 µM | TGI (786-0 renal): 27.9 µM | TGI (UACC-62 melanoma): > 78.8 µM | TGI (HOP-62 NSCLC): 58.9 µM | TGI (M19-MEL melanoma): > 100 µM | TGI (LOX IMVI melanoma): > 100 µM | TGI (DMS 273 small cell lung): > 100 µM | TGI (LXFL 529 NSCLC): > 100 µM | TGI (NCI-H460 lung): > 43.9 µM | TGI (K-562 leukemia): > 100 µM | TGI (RXF-631 renal): > 100 µM | TGI (HCT-15 colon): > 100 µM | TGI (SW-620 colon): > 100 µM | TGI (HCC-2998 colon): > 100 µM | TGI (HL-60(TB) leukemia): > 100 µM | TGI (ACHN renal): > 100 µM | TGI (U251 CNS): 65 µM | TGI (DLD-1 colon): > 100 µM | TGI (NCI-H23 lung): > 69.5 µM | TGI (SK-MEL-28 melanoma): > 100 µM | TGI (SK-MEL-5 melanoma): > 100 µM | TGI (MALME-3M melanoma): > 88.6 µM | TGI (UO-31 renal): > 100 µM | TGI (HOP-18 NSCLC): > 100 µM | TGI (CCRF-CEM leukemia): > 91.7 µM | TGI (SN12C renal): > 100 µM | TGI (OVCAR-3 ovarian): 54.1 µM | TGI (NCI-H522 lung): > 100 µM | TGI (HOP-92 NSCLC): > 100 µM | TGI (HT29 colon): 53.4 µM | TGI (TK-10 renal): > 100 µM | TGI (CAKI-1 renal): > 100 µM | TGI (SK-MEL-2 melanoma): 65.6 µM | TGI (SF-268 CNS): > 68.7 µM | TGI (KM12 colon): > 100 µM | TGI (SF-295 CNS): 39.3 µM | TGI (SNB-19 CNS): > 100 µM | TGI (MOLT-4 leukemia): > 100 µM | TGI (DMS 114 small cell lung): > 100 µM | TGI (KM20L2 colon): > 100 µM | TGI (IGROV1 ovarian): > 100 µM | TGI (SNB-78 CNS): > 31.6 µM | TGI (SF-539 CNS): > 49.4 µM | TGI (A549 NSCLC): > 100 µM | TGI (EKVX NSCLC): > 100 µM | TGI (OVCAR-8 ovarian): > 67.3 µM

COc1ccc(/C=N/NS(=O)(=O)c2ccccc2)cc1
TGI (HCT-116 colon): > 100 µM | TGI (SR leukemia): > 100 µM | TGI (OVCAR-4 ovarian): > 100 µM | TGI (RPMI-8226 leukemia): > 100 µM | TGI (UACC-257 melanoma): > 100 µM | TGI (OVCAR-5 ovarian): > 100 µM | TGI (RXF 393 renal): > 100 µM | TGI (COLO 205 colon): > 100 µM | TGI (SNB-75 CNS): > 100 µM | TGI (SK-OV-3 ovarian): > 100 µM | TGI (XF 498 CNS): > 100 µM | TGI (M14 melanoma): > 100 µM | TGI (786-0 renal): > 100 µM | TGI (UACC-62 melanoma): > 100 µM | TGI (HOP-62 NSCLC): > 100 µM | TGI (M19-MEL melanoma): > 100 µM | TGI (LOX IMVI melanoma): > 100 µM | TGI (DMS 273 small cell lung): > 100 µM | TGI (LXFL 529 NSCLC): > 100 µM | TGI (NCI-H460 lung): > 100 µM | TGI (K-562 leukemia): > 100 µM | TGI (HCT-15 colon): > 100 µM | TGI (SW-620 colon): > 100 µM | TGI (HCC-2998 colon): > 100 µM | TGI (HL-60(TB) leukemia): > 100 µM | TGI (ACHN renal): > 100 µM | TGI (U251 CNS): > 100 µM | TGI (DLD-1 colon): > 100 µM | TGI (NCI-H23 lung): > 100 µM | TGI (SK-MEL-28 melanoma): > 100 µM | TGI (SK-MEL-5 melanoma): > 100 µM | TGI (MALME-3M melanoma): > 100 µM | TGI (UO-31 renal): > 100 µM | TGI (HOP-18 NSCLC): > 100 µM | TGI (CCRF-CEM leukemia): > 100 µM | TGI (SN12C renal): > 100 µM | TGI (OVCAR-3 ovarian): > 100 µM | TGI (HOP-92 NSCLC): > 100 µM | TGI (HT29 colon): > 100 µM | TGI (NCI-H226 lung): > 100 µM | TGI (TK-10 renal): > 100 µM | TGI (CAKI-1 renal): > 100 µM | TGI (SK-MEL-2 melanoma): > 100 µM | TGI (SF-268 CNS): > 100 µM | TGI (KM12 colon): > 100 µM | TGI (SF-295 CNS): > 100 µM | TGI (MOLT-4 leukemia): > 100 µM | TGI (DMS 114 small cell lung): > 100 µM | TGI (KM20L2 colon): > 100 µM | TGI (IGROV1 ovarian): > 100 µM | TGI (A498 renal): > 100 µM | TGI (SNB-78 CNS): > 100 µM | TGI (SF-539 CNS): > 100 µM | TGI (A549 NSCLC): > 100 µM | TGI (EKVX NSCLC): > 100 µM | TGI (OVCAR-8 ovarian): > 100 µM
